From paper PMC7597410, “Targeting breast cancer metabolism with a novel inhibitor of mitochondrial ATP synthesis” (Oncotarget, 2020)

Biological target: T1, mitochondrial ATP synthase subunit alpha (α-F1-ATP synthase, ATP5A) (Homo sapiens, UniProt P25705)
T1 construct: gene ATP5F1A; purified recombinant human α-F1-ATP synthase (CusaBio)
Assay: DSF Tm increase with purified recombinant α subunit ([…]~[…] CADD522, no Kd); the EC50 is from CETSA in MDA-MB-231 lysate; immunocaptured ATP synthase also inhibited at […]~[…]
Assay type: binding

T1 sequence (P25705 44-553): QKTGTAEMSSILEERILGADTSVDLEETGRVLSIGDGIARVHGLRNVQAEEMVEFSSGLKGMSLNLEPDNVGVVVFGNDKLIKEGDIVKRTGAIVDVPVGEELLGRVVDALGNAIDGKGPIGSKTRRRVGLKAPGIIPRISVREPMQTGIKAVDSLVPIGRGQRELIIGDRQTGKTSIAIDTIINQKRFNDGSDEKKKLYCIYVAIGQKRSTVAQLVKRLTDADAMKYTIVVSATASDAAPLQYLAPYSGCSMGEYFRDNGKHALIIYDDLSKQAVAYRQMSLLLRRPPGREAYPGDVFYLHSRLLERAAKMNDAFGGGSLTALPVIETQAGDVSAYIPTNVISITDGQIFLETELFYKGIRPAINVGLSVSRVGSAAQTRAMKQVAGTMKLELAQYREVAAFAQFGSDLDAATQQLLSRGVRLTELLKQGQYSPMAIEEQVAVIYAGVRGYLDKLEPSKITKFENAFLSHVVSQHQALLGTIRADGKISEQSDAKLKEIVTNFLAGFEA

O=C(O)C1C2C=CC(C2)C1C(=O)Nc1ccc(Cl)c(Cl)c1 (stereo not shown) [CADD522]
EC50: < 140 nM
